Among the data in ChEMBL document CHEMBL3132769, “Fragment growing to retain or alter the selectivity of anchored kinase hinge-binding fragments” (Medchemcomm, 2014) are inhibition values, retold here.

One experiment is filed under the species Homo sapiens. The settings on record: 0.1 uM.
In experiment [1] the target is Mitogen-activated protein kinase 1 (Homo sapiens) (UniProt P28482). The experiment can be described thus: Inhibition of human full length ERK2 expressed in Escherichia coli cell assessed as substrate phosphorylation using fluorescence-labelled peptides as substrate at 95 uM after 90 mins by microfluidic peptide phosphorylation assay.
Mitogen-activated protein kinase 1 (Homo sapiens), sequence (P28482 whole entry, the tested form may be a part): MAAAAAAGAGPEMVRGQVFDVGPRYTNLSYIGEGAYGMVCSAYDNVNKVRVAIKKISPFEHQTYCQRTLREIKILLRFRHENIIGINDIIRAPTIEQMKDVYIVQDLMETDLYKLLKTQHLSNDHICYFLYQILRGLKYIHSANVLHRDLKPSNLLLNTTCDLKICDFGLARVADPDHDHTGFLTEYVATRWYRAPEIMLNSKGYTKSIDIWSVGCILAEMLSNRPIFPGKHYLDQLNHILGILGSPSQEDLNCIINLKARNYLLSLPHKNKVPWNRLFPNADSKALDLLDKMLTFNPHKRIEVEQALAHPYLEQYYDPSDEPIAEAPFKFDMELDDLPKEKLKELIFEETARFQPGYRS
The target in experiment [2] is Protein kinase C eta type (Homo sapiens) (UniProt P24723). The experiment can be described thus: Inhibition of human truncated PKC eta expressed in baculovirus assessed as substrate phosphorylation using fluorescence-labelled peptides as substrate at 9 uM after 90 mins by microfluidic peptide phosphorylation assay.
Protein kinase C eta type (Homo sapiens), sequence (P24723 whole entry, the tested form may be a part): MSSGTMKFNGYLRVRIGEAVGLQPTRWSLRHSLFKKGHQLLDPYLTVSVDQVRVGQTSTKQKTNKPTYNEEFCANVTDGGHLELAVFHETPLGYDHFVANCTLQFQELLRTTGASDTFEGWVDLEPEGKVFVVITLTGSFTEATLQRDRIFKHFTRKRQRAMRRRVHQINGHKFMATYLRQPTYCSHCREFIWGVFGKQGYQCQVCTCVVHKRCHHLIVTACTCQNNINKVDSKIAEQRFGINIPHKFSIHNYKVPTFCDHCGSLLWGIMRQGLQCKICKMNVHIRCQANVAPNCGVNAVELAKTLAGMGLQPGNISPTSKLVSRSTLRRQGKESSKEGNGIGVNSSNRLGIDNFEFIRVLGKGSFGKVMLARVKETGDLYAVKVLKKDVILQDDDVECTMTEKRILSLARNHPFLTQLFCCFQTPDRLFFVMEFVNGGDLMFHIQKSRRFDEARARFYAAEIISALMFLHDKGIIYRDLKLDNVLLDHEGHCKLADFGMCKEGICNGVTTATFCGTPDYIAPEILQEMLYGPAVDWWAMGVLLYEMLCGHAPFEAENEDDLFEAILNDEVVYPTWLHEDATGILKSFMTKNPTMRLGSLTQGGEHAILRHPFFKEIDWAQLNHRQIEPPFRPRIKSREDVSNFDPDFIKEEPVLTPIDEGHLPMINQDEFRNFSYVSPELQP
For experiment [3], the target named is T1, Aurora kinase A (Homo sapiens) (UniProt O14965).
T1 sequence (whole entry): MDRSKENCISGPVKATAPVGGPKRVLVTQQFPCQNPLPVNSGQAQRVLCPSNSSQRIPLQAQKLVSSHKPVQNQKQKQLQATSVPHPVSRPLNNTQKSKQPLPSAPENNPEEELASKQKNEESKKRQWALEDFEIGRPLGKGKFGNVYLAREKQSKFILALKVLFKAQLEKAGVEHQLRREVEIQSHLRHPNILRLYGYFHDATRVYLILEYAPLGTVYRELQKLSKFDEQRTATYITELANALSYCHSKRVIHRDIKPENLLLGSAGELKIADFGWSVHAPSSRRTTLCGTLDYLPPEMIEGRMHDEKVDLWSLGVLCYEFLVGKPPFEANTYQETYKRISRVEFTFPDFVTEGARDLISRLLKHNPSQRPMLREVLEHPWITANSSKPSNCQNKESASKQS
The experiment can be described thus: Inhibition of human full length AurA expressed in baculovirus assessed as substrate phosphorylation using fluorescence-labelled peptides as substrate at 9 uM after 90 mins by microfluidic peptide phosphorylation assay.

For experiment [4], the target named is Serine/threonine-protein kinase PAK 2 (Homo sapiens) (UniProt Q13177). The experiment can be described thus: Inhibition of human truncated PAK2 expressed in Escherichia coli cell assessed as substrate phosphorylation using fluorescence-labelled peptides as substrate at 1000 uM after 90 mins by microfluidic peptide phosphorylation assay.
Serine/threonine-protein kinase PAK 2 (Homo sapiens), sequence (Q13177 whole entry, the tested form may be a part): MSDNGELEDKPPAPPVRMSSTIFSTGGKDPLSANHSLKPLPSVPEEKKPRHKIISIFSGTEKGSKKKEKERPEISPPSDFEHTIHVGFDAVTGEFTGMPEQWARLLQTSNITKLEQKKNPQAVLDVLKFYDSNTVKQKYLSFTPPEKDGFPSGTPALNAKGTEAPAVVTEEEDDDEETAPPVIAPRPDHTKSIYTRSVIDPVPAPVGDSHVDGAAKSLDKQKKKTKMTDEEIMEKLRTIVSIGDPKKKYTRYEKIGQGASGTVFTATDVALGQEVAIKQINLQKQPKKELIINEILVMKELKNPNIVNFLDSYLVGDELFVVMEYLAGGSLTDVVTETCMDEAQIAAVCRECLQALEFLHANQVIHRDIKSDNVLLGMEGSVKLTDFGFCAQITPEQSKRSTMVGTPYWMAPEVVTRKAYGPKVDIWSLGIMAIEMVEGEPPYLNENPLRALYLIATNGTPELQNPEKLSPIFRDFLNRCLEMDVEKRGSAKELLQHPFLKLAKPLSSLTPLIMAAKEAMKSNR
Experiment [5] addresses T2, Serine/threonine-protein kinase Sgk3 (Homo sapiens) (UniProt Q96BR1).
T2 sequence (whole entry): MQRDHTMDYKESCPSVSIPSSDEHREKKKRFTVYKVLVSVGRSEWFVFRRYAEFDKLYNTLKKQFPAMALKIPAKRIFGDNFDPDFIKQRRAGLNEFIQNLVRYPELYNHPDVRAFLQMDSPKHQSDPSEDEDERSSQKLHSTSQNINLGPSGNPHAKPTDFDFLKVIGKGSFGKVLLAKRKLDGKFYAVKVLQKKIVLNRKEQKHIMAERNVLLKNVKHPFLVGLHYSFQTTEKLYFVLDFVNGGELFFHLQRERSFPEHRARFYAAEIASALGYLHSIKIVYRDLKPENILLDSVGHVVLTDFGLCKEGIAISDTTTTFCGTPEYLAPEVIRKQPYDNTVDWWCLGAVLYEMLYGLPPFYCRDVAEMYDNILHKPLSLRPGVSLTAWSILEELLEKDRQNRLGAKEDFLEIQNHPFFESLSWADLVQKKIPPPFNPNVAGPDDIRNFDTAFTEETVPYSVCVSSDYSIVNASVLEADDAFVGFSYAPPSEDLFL
The experiment can be described thus: Inhibition of human full length SGK3 expressed in baculovirus assessed as substrate phosphorylation using fluorescence-labelled peptides as substrate at 1000 uM after 90 mins by microfluidic peptide phosphorylation assay.

In experiment [6] the target is T3, Calcium/calmodulin-dependent protein kinase type IV (Homo sapiens) (UniProt Q16566).
T3 sequence (whole entry): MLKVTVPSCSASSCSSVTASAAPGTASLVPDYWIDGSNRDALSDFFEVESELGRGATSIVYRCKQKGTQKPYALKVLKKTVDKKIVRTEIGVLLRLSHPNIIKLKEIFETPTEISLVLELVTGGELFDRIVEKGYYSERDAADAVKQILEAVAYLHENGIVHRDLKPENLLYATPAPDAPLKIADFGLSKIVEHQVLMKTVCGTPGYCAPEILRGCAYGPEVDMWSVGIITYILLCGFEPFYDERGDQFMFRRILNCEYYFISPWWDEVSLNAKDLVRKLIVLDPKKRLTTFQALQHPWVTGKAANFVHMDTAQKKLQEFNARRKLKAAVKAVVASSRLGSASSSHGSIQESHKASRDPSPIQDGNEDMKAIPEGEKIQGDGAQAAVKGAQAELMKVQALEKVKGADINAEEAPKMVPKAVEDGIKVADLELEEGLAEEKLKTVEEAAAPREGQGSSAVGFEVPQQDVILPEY
The experiment can be described thus: Inhibition of human full length CAMK4 expressed in baculovirus assessed as substrate phosphorylation using fluorescence-labelled peptides as substrate at 0.06 uM after 90 mins by microfluidic peptide phosphorylation assay.

Experiment [7] has as its target T4, Serine/threonine-protein kinase BRSK2 (Homo sapiens) (UniProt Q8IWQ3).
T4 sequence (whole entry): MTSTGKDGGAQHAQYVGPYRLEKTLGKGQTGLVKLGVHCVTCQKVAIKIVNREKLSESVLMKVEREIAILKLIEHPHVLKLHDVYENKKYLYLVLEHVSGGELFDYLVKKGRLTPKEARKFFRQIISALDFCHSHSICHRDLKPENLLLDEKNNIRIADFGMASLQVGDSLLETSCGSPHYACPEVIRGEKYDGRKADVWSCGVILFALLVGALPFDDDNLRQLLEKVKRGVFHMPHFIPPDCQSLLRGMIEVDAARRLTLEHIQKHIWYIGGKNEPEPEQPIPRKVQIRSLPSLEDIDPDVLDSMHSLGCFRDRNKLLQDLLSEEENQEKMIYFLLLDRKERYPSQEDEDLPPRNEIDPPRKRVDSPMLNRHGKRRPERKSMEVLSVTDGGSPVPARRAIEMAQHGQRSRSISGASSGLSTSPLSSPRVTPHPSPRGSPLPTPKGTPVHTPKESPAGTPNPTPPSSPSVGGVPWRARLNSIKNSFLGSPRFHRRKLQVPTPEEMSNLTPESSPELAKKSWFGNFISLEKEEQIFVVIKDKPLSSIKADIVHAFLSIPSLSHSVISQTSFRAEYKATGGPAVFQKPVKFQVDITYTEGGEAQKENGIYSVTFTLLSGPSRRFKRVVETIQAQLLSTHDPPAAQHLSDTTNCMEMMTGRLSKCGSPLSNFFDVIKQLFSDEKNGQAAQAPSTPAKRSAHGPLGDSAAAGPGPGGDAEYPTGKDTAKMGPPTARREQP
The experiment can be described thus: Inhibition of human truncated BRSK2 expressed in baculovirus assessed as substrate phosphorylation using fluorescence-labelled peptides as substrate at 70 uM after 90 mins by microfluidic peptide phosphorylation assay.

As usually defined, the inhibition is the share of the control response that was lost under treatment.

As for `C[C@H](CN(C)C)Oc1nc(Nc2cc3cccc(Cl)c3cn2)cnc1C#N`, in the experiment listed under Homo sapiens, the inhibition was found to be 0%. As to `NCCc1ccc(-c2ncnc3[nH]cnc23)cc1`, in experiment [1], the inhibition came to 55.5%. As to `NCC1CN(c2ncnc3[nH]c4cnccc4c23)CCO1` (stereo not drawn), the results for the inhibition in experiment [2] and in experiment [3] were 54.5% and 23.5%, respectively. For the molecule `c1cnc2[nH]ccc2c1`, the values for the inhibition in experiment [4] and in experiment [5] were 13.5% and 80.5%, respectively. Turning to `NC1(Cc2ccc(Cl)cc2)CCN(c2ncnc3[nH]ccc23)CC1`, the inhibition in experiment [6] is 6%. Turning to `CNCc1ccc(-c2ncnc3[nH]cnc23)cc1`, the inhibition in experiment [7] came out at 43%.
